Data: ChEMBL document CHEMBL1201862, “PubChem BioAssay data set” (2004)
Activity calls are given as the source filed them.

Columns and labels:
[1] = Luminescence Cell-Based Dose Retest to Confirm Inhibitors of Cancer Stem Cells. [Related pubchem assays (depositor defined):AID2717, AID2721]; assay type: functional; settings: Homo sapiens
[2] = target: FAD-linked sulfhydryl oxidase ALR (Homo sapiens, UniProt P55789); assay: inhibitors of human ALR sulfhydryl oxidase, dose response, biochemical, H2O2 detection, luminescence, cherry-pick (AID 493248)
[3] = target: T1, Ubiquitin-conjugating enzyme E2 N (Homo sapiens, UniProt P61088); assay type: functional;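 further: Dose-response confirmation in a TR-FRET assay detecting UBC13-driven polyubiquitin chain formation, inhibition measured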
T1 sequence (P61088 whole entry): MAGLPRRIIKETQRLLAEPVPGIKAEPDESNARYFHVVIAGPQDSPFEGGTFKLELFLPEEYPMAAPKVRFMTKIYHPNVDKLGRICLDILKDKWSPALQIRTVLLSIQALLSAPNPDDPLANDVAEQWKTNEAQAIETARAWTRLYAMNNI

[4] = target: T2, DNA repair protein RAD52 homolog (Homo sapiens, UniProt P43351); assay type: functional, biochemical
T2 sequence (P43351 whole entry): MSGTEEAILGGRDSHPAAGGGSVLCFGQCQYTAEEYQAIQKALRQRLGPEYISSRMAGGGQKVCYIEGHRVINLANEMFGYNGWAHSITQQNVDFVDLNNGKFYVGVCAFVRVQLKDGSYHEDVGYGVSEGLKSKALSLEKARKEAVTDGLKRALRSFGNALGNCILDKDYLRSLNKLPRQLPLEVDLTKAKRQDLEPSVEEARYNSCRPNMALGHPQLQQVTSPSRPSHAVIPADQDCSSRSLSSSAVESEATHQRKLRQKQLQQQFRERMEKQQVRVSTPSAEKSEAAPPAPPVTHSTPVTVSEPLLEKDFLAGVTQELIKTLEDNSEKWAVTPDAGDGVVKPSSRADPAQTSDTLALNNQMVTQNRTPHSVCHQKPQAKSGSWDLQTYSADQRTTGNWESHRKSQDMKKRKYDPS

cells = assay type: functional
H9c2 = assay: cells; assay type: functional, cell-based; settings: Rattus norvegicus, H9c2, Myocardium;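 further: confirmatory concentration-response retest of ultra-high-throughput screening hits for modulation of myocardial damage; cell death induced by hydrogen peroxide oxidative stress; compound pretreatment for 60 min then peroxide exposure for 2 h; potency is for protecting the cells against peroxide damage rather than for killing them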
[5] = Luminescence Cell-Based Dose Response HTS to Identify Activators of Luciferase Translation or Activity in H4 […] Cells. [Related pubchem assays: 1829 (Project Summary), 1814 (Primary HTS)]; assay type: functional
H4 = assay: Luminescence Cell-Based Dose Response HTS to Identify Activators of 5'UTR Stem-Loop Driven Prion Protein mRNA Translation in H4 Neuroglioblastoma Cells. [Related pubchem assays: 1829 (Project Summary), 1814 (Primary HTS)]; assay type: functional; settings: Homo sapiens
[6] = Luminescence Cell-Based Dose Confirmation HTS to Identify Activators of 5'UTR Stem-Loop Driven Alpha-Synuclein mRNA Translation in H4 Neuroglioblastoma Cells. [Related pubchem assays: 1829 (Project Summary), 1814 (Primary HTS)]; assay type: functional
[7] = inhibitors of intracellular T. cruzi replication, confirmation, NIH3T3 host cells, beta-gal luminescence (AID 2044); assay type: functional, cell-based;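 further: intracellular parasites grown in NIH/3T3 mouse fibroblasts as host cells; luminescent beta-galactosidase reporter signal from transgenic T. cruzi replicating inside host cells; inhibitors lower the luminescence signal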
[8] = cytotoxicity toward NIH3T3 fibroblasts, dose response, counter-screen, cell-based, ATP luminescence, mouse fibroblasts (AID 2010); assay type: functional; settings: NIH3T3;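 further: cells exposed to compound for about 90 hours before reading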
[9] = target: T3, Zinc finger protein mex-5 (Caenorhabditis elegans, UniProt Q9XUB2); assay: MEX-5/TCR-2 RNA interaction inhibitors, dose response, biochemical, C. elegans, fluorescence polarization (AID 1960)
T3 sequence (Q9XUB2 whole entry): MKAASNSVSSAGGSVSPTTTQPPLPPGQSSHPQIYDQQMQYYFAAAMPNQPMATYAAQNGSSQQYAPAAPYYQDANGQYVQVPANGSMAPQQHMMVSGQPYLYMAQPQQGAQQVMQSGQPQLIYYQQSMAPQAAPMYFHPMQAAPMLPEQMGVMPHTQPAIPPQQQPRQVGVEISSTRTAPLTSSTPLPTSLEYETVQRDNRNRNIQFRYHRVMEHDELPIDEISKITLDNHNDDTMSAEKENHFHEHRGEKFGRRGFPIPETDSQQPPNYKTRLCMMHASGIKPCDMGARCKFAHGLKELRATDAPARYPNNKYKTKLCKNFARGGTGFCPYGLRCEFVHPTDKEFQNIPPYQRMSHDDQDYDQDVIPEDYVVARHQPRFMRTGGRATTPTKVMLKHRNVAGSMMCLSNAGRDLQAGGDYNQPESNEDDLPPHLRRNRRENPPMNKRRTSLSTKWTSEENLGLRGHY

[10] = target: T4, RNA-binding protein pos-1 (Caenorhabditis elegans, UniProt G5EF15); assay: inhibitors of POS-1/mex-3 RNA binding, dose response, biochemical, fluorescence polarization (AID 1964);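 further: purified POS-1 fused to maltose binding protein made in E. coli; potency of compounds blocking POS-1 binding to fluorescent RNA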
T4 sequence (G5EF15 whole entry): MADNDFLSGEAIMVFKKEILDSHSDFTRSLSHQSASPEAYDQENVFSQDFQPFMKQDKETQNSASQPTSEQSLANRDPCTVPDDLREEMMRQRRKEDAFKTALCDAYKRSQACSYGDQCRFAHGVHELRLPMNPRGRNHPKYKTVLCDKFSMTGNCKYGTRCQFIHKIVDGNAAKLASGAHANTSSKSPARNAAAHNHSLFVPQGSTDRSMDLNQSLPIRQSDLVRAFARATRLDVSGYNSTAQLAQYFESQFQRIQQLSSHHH

[11] = target: T5, Replicative DNA helicase DnaB (Mycobacterium tuberculosis, UniProt P9WMR3); assay: DnaB intein splicing inhibitors, dose response, biochemical, cell-free fluorescence (AID 449749); assay type: functional
T5 sequence (P9WMR3 whole entry): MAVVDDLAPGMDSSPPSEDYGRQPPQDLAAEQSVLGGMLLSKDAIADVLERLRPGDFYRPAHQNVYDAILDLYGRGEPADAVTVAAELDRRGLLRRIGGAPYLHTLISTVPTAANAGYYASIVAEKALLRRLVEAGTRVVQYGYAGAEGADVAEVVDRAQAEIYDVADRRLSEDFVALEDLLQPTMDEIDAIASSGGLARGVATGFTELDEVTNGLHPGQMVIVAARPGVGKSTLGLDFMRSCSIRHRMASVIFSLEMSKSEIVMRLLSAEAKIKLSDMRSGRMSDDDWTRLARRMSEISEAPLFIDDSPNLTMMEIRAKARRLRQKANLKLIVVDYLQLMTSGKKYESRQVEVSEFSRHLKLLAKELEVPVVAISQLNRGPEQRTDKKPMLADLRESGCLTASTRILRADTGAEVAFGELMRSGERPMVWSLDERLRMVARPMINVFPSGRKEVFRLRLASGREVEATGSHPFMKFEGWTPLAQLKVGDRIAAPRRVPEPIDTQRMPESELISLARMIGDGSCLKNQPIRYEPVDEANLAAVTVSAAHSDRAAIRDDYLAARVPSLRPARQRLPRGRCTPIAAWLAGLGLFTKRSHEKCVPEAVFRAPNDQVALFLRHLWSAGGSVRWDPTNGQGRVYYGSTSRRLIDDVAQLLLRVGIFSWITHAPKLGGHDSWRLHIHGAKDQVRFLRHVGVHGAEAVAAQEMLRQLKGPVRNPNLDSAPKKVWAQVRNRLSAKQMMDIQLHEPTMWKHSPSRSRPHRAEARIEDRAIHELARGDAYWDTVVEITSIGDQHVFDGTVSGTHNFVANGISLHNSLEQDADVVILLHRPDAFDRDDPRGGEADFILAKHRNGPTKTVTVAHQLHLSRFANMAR

Protein RecA = target: T6, Protein RecA (Mycobacterium tuberculosis, UniProt P9WHJ3); assay: Fluorescence Cell-Free Homogeneous Dose Retest to Identify Inhibitors of RecA-Intein Splicing Activity. [Related pubchem assays (depositor defined):AID2097, AID2223, AID489010, AID492950]; assay type: functional
T6 sequence (P9WHJ3 whole entry): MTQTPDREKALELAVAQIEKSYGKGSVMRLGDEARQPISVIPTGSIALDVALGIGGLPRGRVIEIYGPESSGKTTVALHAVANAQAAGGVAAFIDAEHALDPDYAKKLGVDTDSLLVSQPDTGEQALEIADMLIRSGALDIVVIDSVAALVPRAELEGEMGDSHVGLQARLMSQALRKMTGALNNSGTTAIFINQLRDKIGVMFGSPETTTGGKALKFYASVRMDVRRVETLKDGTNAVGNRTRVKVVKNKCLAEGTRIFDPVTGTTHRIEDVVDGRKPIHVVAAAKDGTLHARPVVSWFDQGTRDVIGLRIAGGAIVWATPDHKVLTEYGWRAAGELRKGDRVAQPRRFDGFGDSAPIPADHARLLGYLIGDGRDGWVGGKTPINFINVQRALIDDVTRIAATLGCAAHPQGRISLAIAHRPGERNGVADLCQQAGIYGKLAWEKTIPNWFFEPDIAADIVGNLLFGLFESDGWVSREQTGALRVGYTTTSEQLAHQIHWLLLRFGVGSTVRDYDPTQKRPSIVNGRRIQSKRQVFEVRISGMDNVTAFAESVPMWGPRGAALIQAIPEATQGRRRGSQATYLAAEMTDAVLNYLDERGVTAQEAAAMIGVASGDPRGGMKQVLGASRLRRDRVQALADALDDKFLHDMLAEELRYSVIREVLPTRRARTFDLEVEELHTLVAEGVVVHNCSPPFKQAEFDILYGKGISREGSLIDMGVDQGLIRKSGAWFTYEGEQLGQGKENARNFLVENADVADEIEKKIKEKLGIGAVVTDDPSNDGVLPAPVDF

[12] = target: T7, Rac GTPase-activating protein 1 (Homo sapiens, UniProt Q9H0H5); assay: MgcRacGAP GTPase-activating activity inhibitors, confirmation, biochemical, ADP Hunter fluorescence, primary and confirmatory (AID 624330); assay type: functional
T7 sequence (Q9H0H5 whole entry): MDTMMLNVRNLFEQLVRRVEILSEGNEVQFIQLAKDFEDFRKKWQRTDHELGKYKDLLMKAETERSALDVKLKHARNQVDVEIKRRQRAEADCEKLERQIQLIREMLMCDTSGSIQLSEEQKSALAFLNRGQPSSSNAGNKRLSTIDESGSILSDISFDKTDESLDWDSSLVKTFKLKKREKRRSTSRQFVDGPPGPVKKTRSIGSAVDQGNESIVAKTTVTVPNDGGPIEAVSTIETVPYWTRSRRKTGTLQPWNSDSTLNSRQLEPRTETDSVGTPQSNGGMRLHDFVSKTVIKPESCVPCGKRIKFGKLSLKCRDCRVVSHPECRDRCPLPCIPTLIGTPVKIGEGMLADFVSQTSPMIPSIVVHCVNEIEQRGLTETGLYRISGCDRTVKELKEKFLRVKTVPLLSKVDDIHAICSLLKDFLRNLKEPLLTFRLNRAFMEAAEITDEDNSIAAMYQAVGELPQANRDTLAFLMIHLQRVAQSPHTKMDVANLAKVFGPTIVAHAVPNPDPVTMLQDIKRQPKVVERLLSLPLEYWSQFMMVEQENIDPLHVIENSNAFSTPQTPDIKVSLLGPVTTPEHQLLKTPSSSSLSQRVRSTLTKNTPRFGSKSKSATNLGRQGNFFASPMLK

Chain of FAD-linked sulfhydryl oxidase ALR (P55789 whole entry): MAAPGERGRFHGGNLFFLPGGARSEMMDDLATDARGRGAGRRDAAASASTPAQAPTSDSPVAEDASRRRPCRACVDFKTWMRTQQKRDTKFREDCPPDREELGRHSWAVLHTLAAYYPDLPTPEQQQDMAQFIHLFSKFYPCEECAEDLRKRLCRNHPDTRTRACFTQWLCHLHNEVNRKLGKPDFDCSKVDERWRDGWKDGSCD

With Cc1cc(C(=O)NNc2ccc(F)cc2)no1 the AC50 [1] was 2.05 µM (active) and the AC50 [2] was 10.5 µM (active).
In the case of Cc1ccc(C(=O)N/C(=C\c2ccc(-c3cccc([N+](=O)[O-])c3)o2)C(=O)NCCCN(C)C)cc1, the IC50 [3] is reported as > 20 µM (inactive) and the AC50 [4] is reported as 24.7 µM (active).
For O=C(c1ccc([N+](=O)[O-])o1)N1CCN(Cc2ccccc2)CC1, the IC50 (cells) was 0.55 µM (active).
For COc1cc(/C(C)=N/NC(=O)CN2CCN(S(=O)(=O)c3ccc(C)cc3)CC2)ccc1O, the AC50 [2] was 3.76 µM (active).
With O=C(NCCc1c[nH]c2ccccc12)C(=O)NCC(c1ccco1)N1CCN(c2ccccc2F)CC1 (stereo not given) the IC50 (H9c2) was 12.2 µM (active).
For c1ccc2c(c1)nc(Nc1ccc3c(c1)OCO3)c1nnnn12, the IC50 (H9c2) was 5.99 µM (active).
For O=C(Cc1nnc(O)c2ccccc12)OCC(=O)c1ccccc1, the IC50 (H9c2) was 20.5 µM (active).
For CCN1CCCC(OC(=O)c2cc(-c3ccc(C)cc3)nc3ccccc23)C1 (stereo not given), the EC50 [5] was 31.1 µM (active), the EC50 (H4) was > 120 µM (not active) and the AC50 [4] was 8.59 µM (active). For the same compound, the EC50 [6] was > 120 µM (not active).
In the case of Cn1c(S)nnc1CSCc1ccc(Cl)c(Cl)c1, the AC50 [2] is reported as 3.93 µM (active).
In the case of CCN(C(=O)CN1CCN(c2ccccc2O)CC1)c1c(N)n(Cc2ccccc2)c(=O)[nH]c1=O, the AC50 [2] is reported as 16.2 µM (active).
In the case of O=C(Nc1cccc([N+](=O)[O-])c1)c1[nH]ncc1Cl, the AC50 [2] is reported as 0.847 µM (active).
In the case of CCOCc1c(C(=O)NC2=C(C(=O)OCC)C(CC)=Nc3ccccc3N2)oc2ccccc12, the IC50 (H9c2) is reported as > 79 µM (inactive).
With O=C(c1ccc([N+](=O)[O-])cc1[N+](=O)[O-])N1CCc2ccccc21 the IC50 (cells) was 0.21 µM (active), the EC50 [7] was 0.7 µM (active) and the EC50 [8] was > 60 µM (not active).
With C[C@H](NC(=O)c1[nH]cnc1C(=O)NCC(=O)OCc1ccccc1)c1ccccc1 the IC50 (H9c2) was > 79 µM (inactive).
For Cn1cccc1CC(=O)N/N=C/c1ccc([N+](=O)[O-])cc1, the AC50 [2] was 6.99 µM (active).
In the case of Cc1ccc(/N=C/c2cc(Br)cc(Cl)c2O)cc1, the EC50 [9] is reported as > 300 µM (not active), the EC50 [10] is reported as > 300 µM (not active) and the IC50 (H9c2) is reported as 10.4 µM (active).
In the case of Cc1ccc(S(=O)(=O)N(C(=O)c2ccncc2)c2ccc(OC(=O)c3ccncc3)c3ccccc23)c(C)c1, the AC50 [11] is reported as 15.4 µM (active) and the EC50 (Protein RecA) is reported as 10 µM (active).
In the case of Brc1ccc(-c2ccc(CNCc3ccccn3)o2)cc1, the IC50 (cells) is reported as 1.25 µM (active).
With Cc1ccc(-c2nnc(COC(=O)c3cccs3)o2)cc1 the IC50 (cells) was 17.5 µM (active).
For COc1cc(OC)c2ccc(=O)oc2c1C(CC(=O)N1CCCC1)c1ccc(N(C)C)cc1 (stereo not given), the AC50 [2] was 2.89 µM (active).
In the case of O=C(CSc1nc(O)c2ccccc2n1)N1CCN(S(=O)(=O)c2ccccc2)CC1, the IC50 (H9c2) is reported as > 79 µM (inactive).
With COc1ccc(CNc2nc3ccccc3n2C(C)C)c(O)c1 the AC50 [2] was 0.146 µM (active).
In the case of COc1ccc(N2CCN(C(=O)NC3CCCCC3)CC2)cc1, the IC50 [12] is reported as 137 µM (active) and the AC50 [2] is reported as 5.03 µM (active).
For CCOC(=O)CSc1nnc(CSc2nc(O)c3c4c(sc3n2)CCC4)n1C, the IC50 (H9c2) was > 79 µM (inactive).
